# From patent publication US6476019B1, “Spirocyclic ligands for sigma receptors, and libraries and methods of use thereof” (Sepracor Inc., priority 1999, dated 2002)
# Like-named read-outs stand apart in the source and are kept apart here.
# Legend:
# [1] = system: [3H]haloperidol binding sites in guinea pig brain; conditions: cited from earlier work
# RedOx State [2] = system: RedOx State
# Caspase-3 [3] = system: Caspase-3
# Protein Synthesis = test: Safety Assessment: Protein Synthesis
# CYP2D6 [4] = molecular target: T1, CYP2D6 (Homo sapiens, UniProt P10635)
# DNA Synthesis = test: Safety Assessment: DNA Synthesis
# Permeability = assay type: in vitro ADME; conditions: not told; read-out: Permeability PupperX10^6 cm/s
# GSH Level [5] = system: GSH Level
# [6] = molecular target: T2, sigma-1 receptor (guinea pig brain) (Cavia porcellus, UniProt Q60492); test: Antagonism of haloperidol binding to guinea pig sigma-1 receptors; conditions: sigma-1, guinea pig brain; for % Inhibition: test concentration not given
# T2 construct: from tissue; host or cells: guinea pig brain
# CYP3A4 [7] = molecular target: T3, CYP3A4 (Homo sapiens, UniProt P08684)
# Membrane Integrity [8] = system: Membrane Integrity
# CYP2C9 [9] = molecular target: T4, CYP2C9 (Homo sapiens, UniProt P11712)
# CYP2C19 [10] = molecular target: T5, CYP2C19 (Homo sapiens, UniProt P33261)
# [11] = pH 7.5
# Cell Viability [12] = system: Cell Viability
# CYP1A2 [13] = molecular target: T6, CYP1A2 (Homo sapiens, UniProt P05177); test: In Vitro Metabolism (isozymes of P450) CYP1A2
# T6 sequence (P05177 1-516): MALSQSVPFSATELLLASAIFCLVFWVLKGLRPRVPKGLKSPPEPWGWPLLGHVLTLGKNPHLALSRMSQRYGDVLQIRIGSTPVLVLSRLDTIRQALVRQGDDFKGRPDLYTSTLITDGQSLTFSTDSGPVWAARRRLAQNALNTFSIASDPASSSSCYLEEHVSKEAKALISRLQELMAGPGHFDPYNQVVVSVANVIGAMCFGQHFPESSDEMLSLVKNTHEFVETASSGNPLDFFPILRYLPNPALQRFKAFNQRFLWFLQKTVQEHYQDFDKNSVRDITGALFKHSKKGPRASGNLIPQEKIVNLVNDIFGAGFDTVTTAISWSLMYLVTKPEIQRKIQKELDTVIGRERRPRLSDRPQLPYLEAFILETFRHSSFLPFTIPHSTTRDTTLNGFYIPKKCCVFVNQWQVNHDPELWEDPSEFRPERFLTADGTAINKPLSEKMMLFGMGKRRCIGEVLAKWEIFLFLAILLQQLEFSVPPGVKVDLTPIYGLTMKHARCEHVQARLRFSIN
# sigma-1 receptors = sigma-1 receptors (Cavia porcellus, UniProt Q60492); test: Behavioral receptor assays: sigma-1; assay type: binding; conditions: guinea pig
# Description: (§1) Various compounds of the present invention (19, 31, and 32) were evaluated in a group of assays based on mammalian cellular receptors associated with behavior. The group consisted of assays base on human dopamine D1, D2L, D3, D4.2, D4.4, D4.7, and D5 receptors, and the transporter; human serotonin 5-HT1A, 5-HT1B, 5-HT1D, 5-HT2A, 5-HT2B, 5-HT2C, 5-HT3, 5-HT5A, 5-HT6, and 5-HT7 receptors, and the human serotonin transporter; guinea pig 5-HT4 and sigma-1 receptors; rat sigma-2 and muscarinic receptors; and human NK1-3 receptors. The following table presents a subset of the results of these assays.
# human serotonin 5-HT2A = human serotonin 5-HT2A (Homo sapiens, UniProt P28223); test: Behavioral receptor assays: 5-HT2A; assay type: binding; conditions: read-out: Receptors (IC50) 5-HT2A
# Description: as §1
# Cell Viability [14] = test: Safety Assessment: Cell Viability
# CYP2C19 [15] = molecular target: T5, CYP2C19; test: In Vitro Metabolism (isozymes of P450) CYP2C19
# CYP2D6 [16] = molecular target: T1, CYP2D6; test: In Vitro Metabolism (isozymes of P450) CYP2D6
# CYP3A4 [17] = molecular target: T3, CYP3A4; test: In Vitro Metabolism (isozymes of P450) CYP3A4
# CYP2C9 [18] = molecular target: T4, CYP2C9; test: In Vitro Metabolism (isozymes of P450) CYP2C9
# Membrane Integrity [19] = test: Safety Assessment: Membrane Integrity
# RedOx State [20] = test: Safety Assessment: RedOx State
# CYP1A2 [21] = molecular target: T6, CYP1A2
# GSH Level [22] = test: Safety Assessment: GSH Level
# Caspase-3 [23] = test: Safety Assessment: Caspase-3 Induction
# human sigma receptor = human sigma receptor (Homo sapiens, UniProt Q99720); test: Human sigma receptor assay; assay type: binding; conditions: read-out: IC50 Against Human Sigma Receptor
# Description: (§2) The ability of test compounds to displace sigma ligands in vitro was determined by the methods of de Costa et al. (FEBS Lett. 251:53 (1989)) and De Haven-Hudkine et al. (Eur. J. Pharmacol. 227:372 (1992)) having guinea pig as a receptor source. Whereas, the methods of Gamapatju et al. (J. Pharm.&Exp. 289:251 (1999)) were utilized for human sigma receptors.
# Male Wistar rats = test: MK-801-Induced Psychosis Model; assay type: in vivo, rat; conditions: rat, 0.5, 1.0 and 5.0 mg/kg i.p.; MK-801 0.3 mg/kg i.p.
# From the text: The non-competitive NMDA receptor antagonist MK-801 induces stereotypies and hyperactivity in rodents (1) by interacting with the NMDA receptor-associated ion channel. Phencyclidine, which also interferes with the NMDA receptor, produces psychotic effects in humans similar in many respects to schizophrenia. […] Therefore the MK-801-induced activity and stereotypies in rats may represent an appropriate animal model to test the potential efficacy of antipsychotic drugs.
# Male Wistar rats (Iffa Crédo, St Germain/l'Arbresle, France), weight 250-300 g were housed 2 per cage on a 12 h/12 h light dark cycle (lights on at 7.00 a.m.) at a room temperature of 21±2° C. for a minimum of 5 days before testing. All animals had access to commercial food and tap water ad libitum.
# On the day of the experiment, rats were treated with either reference drug vehicle, the reference drugs haloperidol or clozapine the test compound vehicle or test compounds. After administration, the rats were returned to their home cages for 15 minutes. […] The remaining rats treated with placebo received a second injection of vehicle. The standard injection volume was 2.0 ml/kg. After 10 minutes in the home cages, rats were transferred to the test box (Plexiglas, 29×12×12 cm), 5 minutes before the assessment for accomodation. The test box was cleaned with 70% ethanol before each assessment. Stereotypies, defined as wall-contacts with the snout, and locomotion, defined as turn-rounds of 180°, were assessed during 5 minute periods.
# [24] = molecular target: T7, guinea pig sigma receptor (Cavia porcellus, UniProt Q60492); test: Guinea pig sigma receptor assay; assay type: binding; conditions: read-out: IC50 Against Guinea Pig Sigma Receptor
# T7 construct: having guinea pig as a receptor source; from tissue; host or cells: guinea pig
# Description: as §2
# T3 sequence (P08684 whole entry): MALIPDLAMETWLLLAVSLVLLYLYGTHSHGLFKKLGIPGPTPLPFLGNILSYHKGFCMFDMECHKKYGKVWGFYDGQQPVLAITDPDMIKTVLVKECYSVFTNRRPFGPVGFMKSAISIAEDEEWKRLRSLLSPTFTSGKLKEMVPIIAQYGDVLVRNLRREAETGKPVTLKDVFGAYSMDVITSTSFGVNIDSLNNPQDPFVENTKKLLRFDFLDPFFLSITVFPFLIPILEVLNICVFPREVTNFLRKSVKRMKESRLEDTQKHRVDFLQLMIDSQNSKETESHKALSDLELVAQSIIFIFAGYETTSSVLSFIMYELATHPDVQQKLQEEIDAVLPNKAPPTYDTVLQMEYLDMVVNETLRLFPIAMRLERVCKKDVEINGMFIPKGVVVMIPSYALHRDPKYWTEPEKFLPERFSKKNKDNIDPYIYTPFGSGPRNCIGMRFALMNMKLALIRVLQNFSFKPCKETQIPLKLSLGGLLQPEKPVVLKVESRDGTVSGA
# T1 sequence (P10635 whole entry): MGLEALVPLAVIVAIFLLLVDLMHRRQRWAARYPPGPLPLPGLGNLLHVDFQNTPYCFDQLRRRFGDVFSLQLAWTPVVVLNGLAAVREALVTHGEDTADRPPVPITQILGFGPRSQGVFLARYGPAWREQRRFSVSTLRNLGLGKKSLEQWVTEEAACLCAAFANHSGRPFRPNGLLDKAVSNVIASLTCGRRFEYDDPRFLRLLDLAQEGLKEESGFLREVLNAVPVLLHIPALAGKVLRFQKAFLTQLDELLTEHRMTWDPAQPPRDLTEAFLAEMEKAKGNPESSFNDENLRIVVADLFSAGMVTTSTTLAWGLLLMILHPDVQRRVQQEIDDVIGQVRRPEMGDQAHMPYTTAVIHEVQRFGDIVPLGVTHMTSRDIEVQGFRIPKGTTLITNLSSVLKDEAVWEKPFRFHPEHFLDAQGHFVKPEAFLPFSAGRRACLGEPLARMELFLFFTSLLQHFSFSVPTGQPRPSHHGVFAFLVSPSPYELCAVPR
# T4 sequence (P11712 whole entry): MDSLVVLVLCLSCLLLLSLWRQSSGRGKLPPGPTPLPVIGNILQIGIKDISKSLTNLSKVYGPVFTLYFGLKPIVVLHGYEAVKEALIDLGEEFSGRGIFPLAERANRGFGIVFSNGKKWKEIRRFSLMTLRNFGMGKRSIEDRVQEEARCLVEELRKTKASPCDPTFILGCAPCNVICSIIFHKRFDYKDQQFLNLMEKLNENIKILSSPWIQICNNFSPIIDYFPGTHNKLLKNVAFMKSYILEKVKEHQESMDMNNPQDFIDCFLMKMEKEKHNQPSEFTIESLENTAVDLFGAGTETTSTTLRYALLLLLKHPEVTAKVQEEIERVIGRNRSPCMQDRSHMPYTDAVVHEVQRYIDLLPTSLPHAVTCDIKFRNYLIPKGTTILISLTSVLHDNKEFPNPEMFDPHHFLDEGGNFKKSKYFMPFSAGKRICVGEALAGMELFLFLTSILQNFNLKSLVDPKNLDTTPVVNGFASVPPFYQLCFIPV
# T5 sequence (P33261 whole entry): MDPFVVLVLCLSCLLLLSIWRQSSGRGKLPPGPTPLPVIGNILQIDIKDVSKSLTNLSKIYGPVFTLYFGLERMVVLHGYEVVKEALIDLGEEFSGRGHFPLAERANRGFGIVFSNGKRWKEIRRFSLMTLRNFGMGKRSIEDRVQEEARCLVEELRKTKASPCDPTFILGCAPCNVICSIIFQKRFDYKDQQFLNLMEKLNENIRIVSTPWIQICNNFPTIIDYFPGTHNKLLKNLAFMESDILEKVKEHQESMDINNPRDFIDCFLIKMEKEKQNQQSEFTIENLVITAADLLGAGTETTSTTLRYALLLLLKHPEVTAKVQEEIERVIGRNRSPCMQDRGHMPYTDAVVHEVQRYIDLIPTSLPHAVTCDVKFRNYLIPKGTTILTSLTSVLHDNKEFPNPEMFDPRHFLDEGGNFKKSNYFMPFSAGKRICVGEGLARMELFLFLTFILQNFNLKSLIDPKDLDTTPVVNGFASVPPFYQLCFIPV
# T2 sequence (Q60492 whole entry): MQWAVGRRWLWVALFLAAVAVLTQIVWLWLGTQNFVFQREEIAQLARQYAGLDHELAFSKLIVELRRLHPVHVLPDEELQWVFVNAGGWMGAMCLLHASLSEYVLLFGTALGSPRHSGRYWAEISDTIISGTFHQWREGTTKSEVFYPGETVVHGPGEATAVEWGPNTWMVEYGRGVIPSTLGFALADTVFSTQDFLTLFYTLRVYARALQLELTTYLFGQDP
# T7 sequence (Q60492 whole entry): as above
# human sigma receptor, sequence (Q99720 whole entry): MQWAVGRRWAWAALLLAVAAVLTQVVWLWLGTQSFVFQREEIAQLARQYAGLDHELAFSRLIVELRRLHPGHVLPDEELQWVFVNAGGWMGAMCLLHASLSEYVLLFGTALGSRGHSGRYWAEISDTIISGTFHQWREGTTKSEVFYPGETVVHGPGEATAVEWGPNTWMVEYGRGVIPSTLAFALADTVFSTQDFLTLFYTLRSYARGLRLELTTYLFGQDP
# human serotonin 5-HT2A, sequence (P28223 whole entry): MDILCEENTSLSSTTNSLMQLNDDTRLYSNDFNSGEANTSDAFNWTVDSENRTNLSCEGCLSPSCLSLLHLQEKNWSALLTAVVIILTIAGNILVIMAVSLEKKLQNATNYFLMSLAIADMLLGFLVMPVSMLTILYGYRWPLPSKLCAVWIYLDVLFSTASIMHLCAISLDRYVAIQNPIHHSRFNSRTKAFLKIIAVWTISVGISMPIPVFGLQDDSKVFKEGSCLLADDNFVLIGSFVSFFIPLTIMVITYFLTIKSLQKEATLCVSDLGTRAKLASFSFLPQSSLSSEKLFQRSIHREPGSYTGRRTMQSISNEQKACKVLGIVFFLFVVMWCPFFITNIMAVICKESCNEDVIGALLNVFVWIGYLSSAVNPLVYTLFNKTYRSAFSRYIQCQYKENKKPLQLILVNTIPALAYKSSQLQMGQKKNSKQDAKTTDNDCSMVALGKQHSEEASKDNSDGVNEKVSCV
# sigma-1 receptors, sequence (Q60492 whole entry): as the sequence (Q60492 whole entry) above
Structure (SMILES),Protein Synthesis (Protein Synthesis) [% inhibition],DNA Synthesis (DNA Synthesis) [% inhibition],Papp (Permeability) [×10⁻⁶ cm/s],IC50 [6] [nM],% Inhibition [6] [%],CYP1A2 (CYP1A2 [13]) [% inhibition],Cell Viability (Cell Viability [14]) [% inhibition],Log D7.5 (Log D7.5),CYP2C19 (CYP2C19 [15]) [% inhibition],CYP2D6 (CYP2D6 [16]) [% inhibition],solubility (Solubility) [µM],CYP3A4 (CYP3A4 [17]) [% inhibition],fraction unbound (Protein Binding),CYP2C9 (CYP2C9 [18]) [% inhibition],Metabolic Stability (% parent remaining) (Metabolic Stability),Membrane Integrity (Membrane Integrity [19]) [% inhibition],RedOx State (RedOx State [20]) [% inhibition],GSH Level (% Control) (GSH Level [22]),Caspase-3 Induction % Induction (Caspase-3 [23]) [% Induction],IC50 (human sigma receptor) [nM],further results
"CC(C)=CCN1CCC2(C)c3cc(O)ccc3CC1C2C (single isomer, unassigned; (+)) [(+)-pentazocine]",–,–,–,–,–,–,–,–,–,–,–,–,–,–,–,–,–,–,–,–,potency in displacing [3H]haloperidol relative to spiperone [1]: about 10 times
"O=C1CCC2(CCNCC2)Nc2ccccc21 [Compound 11, 3,4-Dihydrospiro[5H-1-benzazepine-2(1H), 4′-piperidin]-5-one]",42,<10,4.7,> 1000,<50,<10,–,–,–,–,–,–,–,–,–,–,–,–,–,–,RedOx State (RedOx State [2]): <10 % inhibition; Caspase-3 Induction % Induction (Caspase-3 [3]): <10 % Induction; solubility (physchem): 202 µM; CYP2D6 (CYP2D6 [4]): 15 % inhibition; GSH Level (% Control) (GSH Level [5]): <10 % Control; CYP3A4 (CYP3A4 [7]): <10 % inhibition; Membrane Integrity (Membrane Integrity [8]): <10 % inhibition; CYP2C9 (CYP2C9 [9]): <10 % inhibition; CYP2C19 (CYP2C19 [10]): <10 % inhibition; Log D7.5 [11]: 0.48; fraction unbound (in vitro): 0.3; Cell Viability (Cell Viability [12]): <10 % inhibition
O=C1CCC2(CCN(CCc3ccccc3)CC2)Nc2ccccc21 [Compound 19],–,–,–,–,>50,–,–,–,–,–,–,–,–,–,–,–,–,–,–,–,IC50 (sigma-1 receptors): < 100 nM; IC50 (human serotonin 5-HT2A): < 1000 nM
"O=C1CCC2(CCN(Cc3nc4ccccc4[nH]3)CC2)Nc2ccccc21 [Compound 21, 1′-(2-methylbenzimidazole)-3,4-dih drospiro[5H-1-benzazepine-2(1H)-4′-piperidin]-5-one]",14,29,1.95,< 1000,>50,–,<10,1.22,20,100,210,69,0.01,19,17,<10,33,<10,<10,–,CYP1A2 (CYP1A2 [21]): 20 % inhibition
O[C@H]1CCC2(CCN(Cc3ccc(F)cc3)CC2)Nc2ccccc21 [Compound 49],<10,<10,27.5,–,–,13,<10,1.59,19,44,181,17,0.37,18,69,<10,15,<10,<10,< 100,MK-801-induced locomotion (Male Wistar rats): did not reduce; MK-801-induced stereotypies (Male Wistar rats): did not reduce; IC50 [24]: < 100 nM
O[C@@H]1CCC2(CCN(Cc3ccc(F)cc3)CC2)Nc2ccccc21 [Compound 50],<10,<10,25.8,–,–,14,<10,1.62,19,31,205,19,0.38,19,87,<10,12,<10,<10,< 1000,MK-801-induced locomotion (Male Wistar rats): caused a reduction; MK-801-induced stereotypies (Male Wistar rats): caused a reduction; IC50 [24]: < 100 nM
